{"source": "paper PMC6162201", "about": "“Towards a comprehensive understanding of the structural dynamics of a bacterial diterpene synthase during catalysis” (Nature Communications, 2018)", "target": "T1, CotB2 (CotB2^wt) (Streptomyces melanosporofaciens, UniProt C9K1X5)", "T1 construct": "C-terminal His6 tag, pET-24a, expressed in E. coli Rosetta2 (DE3)", "T1 sequence (C9K1X5 1-307)": "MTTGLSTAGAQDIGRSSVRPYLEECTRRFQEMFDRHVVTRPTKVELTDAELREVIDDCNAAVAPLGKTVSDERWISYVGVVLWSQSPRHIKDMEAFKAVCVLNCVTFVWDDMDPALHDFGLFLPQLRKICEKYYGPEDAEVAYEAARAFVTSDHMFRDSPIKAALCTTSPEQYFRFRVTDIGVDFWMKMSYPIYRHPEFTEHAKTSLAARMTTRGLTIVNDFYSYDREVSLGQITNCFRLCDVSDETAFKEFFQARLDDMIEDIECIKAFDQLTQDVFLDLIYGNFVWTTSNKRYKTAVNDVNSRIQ", "format": "binding", "conditions": "Mg2+ (three ions), pH 8.5; active site, diphosphate mimic, closed state", "data": [{"smiles": "NCCCC(O)(P(=O)(O)O)P(=O)(O)O", "note": "[AHD, (4-amino-1-hydroxy-1-phosphonobutyl)phosphonate]", "values": [{"measurement": "X-ray crystal structure, co-crystallisation", "value": "we crystallised CotB2 with (4-amino-1-hydroxy-1-phosphonobutyl)phosphonate (alendronate (AHD)"}]}]}
